In ChEMBL document CHEMBL5500346, “Targeting EGFR degradation by autophagosome degraders” (Eur J Med Chem, 2024):
Calls of active or inactive are those of the source. Unless noted, no cut-off for these calls is given here.

Tests used:
[1] = Toxicity in C57BL/6 mouse assessed as serum ALB level at 200 mg/kg, ip measured after 24 hrs (reference value: 40.01 g/L); assay type: organism-based; conditions: in vivo
PC-9 [2] = test: In vivo ATTEC activity at LC3B/EGFR in human PC-9 cells implanted in NOD-SCID mouse assessed as protein degradation at 10 mg/kg, ip administered every other day for 3 weeks by Western blot analysis; assay type: functional, organism-based
[3] = Toxicity in C57BL/6 mouse assessed as ataxia upto 200 mg/kg, ip measured after 24 hrs; assay type: organism-based; conditions: in vivo
NCI-H3255 [4] = test: Inhibition of colony formation in human NCI-H3255 cells incubated for 2 weeks by crystal violet staining based analysis; assay type: functional, cell-based; conditions: dose 0.1-10 µM
[5] = Toxicity in C57BL/6 mouse assessed as serum TBIL level at 100 mg/kg, ip measured after 24 hrs (reference value: 18.958 umol/L); assay type: organism-based; conditions: in vivo
[6] = Toxicity in C57BL/6 mouse assessed as serum GGT level at 100 mg/kg, ip measured after 24 hrs (reference value: 1.62 U/L); assay type: organism-based; conditions: in vivo
[7] = target: T1, Microtubule-associated protein 1 light chain 3 beta/Epidermal growth factor receptor (Homo sapiens, UniProt P00533+Q9GZQ8); test: ATTEC activity at LC3B/EGFR in human HCC827 cells assessed as protein degradation at 1 uM measured after 12 hrs by Western blot analysis relative to control; assay type: cell-based
[8] = Toxicity in C57BL/6 mouse assessed as serum DBIL level at 100 mg/kg, ip measured after 24 hrs (reference value: 7.868 umol/L); assay type: organism-based; conditions: in vivo
[9] = target: T1, Microtubule-associated protein 1 light chain 3 beta/Epidermal growth factor receptor; test: Binding affinity to biotinylated LC3B/EGFR in human HCC827 cells assessed as dissociation constant BLI assay; assay type: cell-based
[10] = Toxicity in C57BL/6 mouse assessed as histological change in heart upto 200 mg/kg, ip measured after 24 hrs by H and E staining based analysis; assay type: organism-based; conditions: in vivo
[11] = Toxicity in C57BL/6 mouse assessed as serum uric acid level at 100 mg/kg, ip measured after 24 hrs (reference value: 78.784 umol/L); assay type: organism-based; conditions: in vivo
[12] = Toxicity in C57BL/6 mouse assessed as dyspnea upto 200 mg/kg, ip measured after 24 hrs; assay type: organism-based; conditions: in vivo
[13] = Toxicity in C57BL/6 mouse assessed as histological change in liver upto 200 mg/kg, ip measured after 24 hrs by H and E staining based analysis; assay type: organism-based; conditions: in vivo
NCI-H3255 [14] = test: Antiproliferative activity against human NCI-H3255 cells incubated for 72 hrs by CCK8 assay; assay type: functional, cell-based; conditions: NCI-H3255, 72 h
[15] = Toxicity in C57BL/6 mouse assessed as serum TBA level at 100 mg/kg, ip measured after 24 hrs (reference value: 2.674 umol/L); assay type: organism-based; conditions: in vivo
[16] = Toxicity in C57BL/6 mouse assessed as lethargy upto 200 mg/kg, ip measured after 24 hrs; assay type: organism-based; conditions: in vivo
[17] = Toxicity in C57BL/6 mouse assessed as body weight loss upto 200 mg/kg, ip measured after 24 hrs; assay type: organism-based; conditions: in vivo
[18] = Toxicity in NOD-SCID mouse bearing human PC-9 cells assessed as body weight loss at 5 to 20 mg/kg, ip administered every other day for 3 weeks; assay type: organism-based; conditions: in vivo, 504 h, dose 5-20 mg/kg
[19] = Toxicity in C57BL/6 mouse assessed as histological change in kidney upto 200 mg/kg, ip measured after 24 hrs by H and E staining based analysis; assay type: organism-based; conditions: in vivo
PC-9 [20] = test: Anti-tumor activity against human PC-9 cells implanted in NOD-SCID mouse at 5 mg/kg, ip administered every other day for 3 weeks relative to control; assay type: functional; conditions: PC-9, 504 h, read-out: TGI
[21] = target: T1, Microtubule-associated protein 1 light chain 3 beta/Epidermal growth factor receptor; test: ATTEC activity at LC3B/EGFR in Gefitinib-resistant human PC-9 cells assessed as protein degradation; assay type: cell-based
[22] = Toxicity in C57BL/6 mouse assessed as serum ALT level at 200 mg/kg, ip measured after 24 hrs (reference value: 42.554 U/L); assay type: organism-based; conditions: in vivo
[23] = Toxicity in C57BL/6 mouse assessed as serum ALP level at 100 mg/kg, ip measured after 24 hrs (reference value: 250.654 U/L); assay type: organism-based; conditions: in vivo
PC-9 [24] = test: Anti-tumor activity against human PC-9 cells implanted in NOD-SCID mouse at 10 mg/kg, ip administered every other day for 3 weeks relative to control; assay type: functional; conditions: PC-9, 504 h, read-out: TGI
[25] = target: T1, Microtubule-associated protein 1 light chain 3 beta/Epidermal growth factor receptor; test: ATTEC activity at LC3B/EGFR in human HCC827 cells assessed as protein degradation at 1 uM incubated for 18 hrs by global proteomic profiling analysis; assay type: cell-based
L02 = test: Antiproliferative activity against human HL7702 cells incubated for 72 hrs by CCK8 assay; assay type: toxicity, cell-based; conditions: l02, 72 h

COc1cc2ncnc(Nc3ccc(F)c(Cl)c3)c2cc1OCCOCCOCCOCCNC(=O)COc1c(Br)cc(/C=C2\C(=O)Nc3ccc(I)cc32)cc1Br
Activity [1]: 40.048 g/L | Activity (PC-9 [2]): Active | Activity [3]: Non-Toxic | inhibition (NCI-H3255 [4]): Dose-Dependent Effect | Activity [5]: 17.83 µmol/L | Activity [6]: 1.682 U/L | Activity [7]: 68% | Activity [8]: 6.434 µmol/L | Kd [9]: 710 nM | Activity [10]: Non-Toxic | Activity [11]: 44.454 µmol/L | Activity [12]: Non-Toxic | Activity [13]: Non-Toxic | IC50 (NCI-H3255 [14]): 3000 nM | Activity [15]: 2.53 µmol/L | Activity [16]: Non-Toxic | Activity [17]: Non-Toxic | Activity [18]: Non-Toxic | Activity [19]: Non-Toxic | inhibition in vivo at 5 mg/kg (PC-9 [20]): 35% | Activity [21]: inactive | Activity [22]: 43.302 U/L | Activity [23]: 185.73 U/L | inhibition in vivo at 10 mg/kg (PC-9 [24]): 51.6% | Activity [25]: Active | Activity (L02): Non-Toxic
